Reference: patent US7074789B2, “Kinase inhibitors” (Amgen Inc., priority 1999, dated 2006)
Read-outs that look alike come from different tables or passages of the source.

Key:
Format in all cases: biochemical
Lck = target: T1, Lck (Homo sapiens, UniProt P06239); assay: Kinase inhibition assay (33P transfer), Lck; conditions: read-out: Lck-1
T1 construct: Kinases are expressed as either kinase domains or full length constructs; made in house
Summary of the method: (§1)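 Kinase domain or full-length constructs, GST- or polyHis-tagged, expressed in E. coli or baculovirus-High Five cells, sometimes with regulatory polypeptides. Activity measured as 33PO4 transfer from ATP to plate-bound poly(Glu,Tyr) 4:1 or poly(Arg,Ser) 3:1; after incubation, plates washed with 0.5% phosphoric acid and counted by liquid scintillation.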

Zap-70 = target: T2, Zap-70 (Homo sapiens, UniProt P43403); assay: Kinase inhibition assay (33P transfer), Zap-70; conditions: read-out: Zap-1
T2 construct: Kinases are expressed as either kinase domains or full length constructs; made in house
T2 sequence (P43403 1-619): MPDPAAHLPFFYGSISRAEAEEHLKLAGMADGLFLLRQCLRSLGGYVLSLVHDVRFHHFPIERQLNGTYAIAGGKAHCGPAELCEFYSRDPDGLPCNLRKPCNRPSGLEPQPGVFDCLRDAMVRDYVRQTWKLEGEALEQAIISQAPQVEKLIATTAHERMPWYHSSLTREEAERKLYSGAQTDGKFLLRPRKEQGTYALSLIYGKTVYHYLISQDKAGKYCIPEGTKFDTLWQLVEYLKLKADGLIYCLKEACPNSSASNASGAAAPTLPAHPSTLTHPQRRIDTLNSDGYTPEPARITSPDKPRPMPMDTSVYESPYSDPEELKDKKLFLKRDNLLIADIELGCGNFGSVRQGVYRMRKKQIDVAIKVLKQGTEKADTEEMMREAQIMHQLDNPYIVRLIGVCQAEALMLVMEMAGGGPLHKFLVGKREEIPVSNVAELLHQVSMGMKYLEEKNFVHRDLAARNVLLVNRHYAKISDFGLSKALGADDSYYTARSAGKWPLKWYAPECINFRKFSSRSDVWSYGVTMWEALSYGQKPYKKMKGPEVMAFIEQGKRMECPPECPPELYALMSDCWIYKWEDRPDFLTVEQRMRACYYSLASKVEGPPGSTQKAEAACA
Summary of the method: as §1

Itk = target: T3, Itk (Homo sapiens, UniProt Q08881); assay: Kinase inhibition assay (33P transfer), Itk; conditions: read-out: Itk-1
T3 construct: Kinases are expressed as either kinase domains or full length constructs; made in house
T3 sequence (Q08881 1-620): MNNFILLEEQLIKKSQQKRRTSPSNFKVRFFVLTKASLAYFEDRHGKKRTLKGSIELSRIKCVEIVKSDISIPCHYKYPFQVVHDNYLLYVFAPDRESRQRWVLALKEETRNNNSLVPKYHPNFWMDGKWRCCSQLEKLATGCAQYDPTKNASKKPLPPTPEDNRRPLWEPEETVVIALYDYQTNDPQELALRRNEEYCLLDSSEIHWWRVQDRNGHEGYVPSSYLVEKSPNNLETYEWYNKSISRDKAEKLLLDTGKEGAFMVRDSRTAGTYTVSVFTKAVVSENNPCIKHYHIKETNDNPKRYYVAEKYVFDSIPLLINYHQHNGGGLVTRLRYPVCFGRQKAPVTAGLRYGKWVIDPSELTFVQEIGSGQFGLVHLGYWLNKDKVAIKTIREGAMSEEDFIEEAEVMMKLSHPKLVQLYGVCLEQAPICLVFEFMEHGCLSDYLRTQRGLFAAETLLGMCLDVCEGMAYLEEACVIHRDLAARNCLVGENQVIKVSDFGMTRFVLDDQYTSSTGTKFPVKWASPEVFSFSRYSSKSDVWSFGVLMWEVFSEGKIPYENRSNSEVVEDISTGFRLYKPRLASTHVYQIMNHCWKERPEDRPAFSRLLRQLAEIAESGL
Summary of the method: (§2)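 Each enzyme, purified to near homogeneity by affinity chromatography, was incubated with ATP carrying 33P and a substrate polymer fixed to the plate. Unbound label was removed with dilute phosphoric acid (0.5%) before adding scintillant and counting. Potency is given as the compound level cutting label uptake by 50%.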

EGFR = target: T4, EGFR (Homo sapiens, UniProt P00533); assay: Kinase inhibition assay (33P transfer), EGFR; conditions: Table 2, kinase inhibition class; read-out: EGFR-1
T4 construct: Kinases are expressed as either kinase domains or full length constructs; made in house
T4 sequence (P00533 25-1210, species assumed): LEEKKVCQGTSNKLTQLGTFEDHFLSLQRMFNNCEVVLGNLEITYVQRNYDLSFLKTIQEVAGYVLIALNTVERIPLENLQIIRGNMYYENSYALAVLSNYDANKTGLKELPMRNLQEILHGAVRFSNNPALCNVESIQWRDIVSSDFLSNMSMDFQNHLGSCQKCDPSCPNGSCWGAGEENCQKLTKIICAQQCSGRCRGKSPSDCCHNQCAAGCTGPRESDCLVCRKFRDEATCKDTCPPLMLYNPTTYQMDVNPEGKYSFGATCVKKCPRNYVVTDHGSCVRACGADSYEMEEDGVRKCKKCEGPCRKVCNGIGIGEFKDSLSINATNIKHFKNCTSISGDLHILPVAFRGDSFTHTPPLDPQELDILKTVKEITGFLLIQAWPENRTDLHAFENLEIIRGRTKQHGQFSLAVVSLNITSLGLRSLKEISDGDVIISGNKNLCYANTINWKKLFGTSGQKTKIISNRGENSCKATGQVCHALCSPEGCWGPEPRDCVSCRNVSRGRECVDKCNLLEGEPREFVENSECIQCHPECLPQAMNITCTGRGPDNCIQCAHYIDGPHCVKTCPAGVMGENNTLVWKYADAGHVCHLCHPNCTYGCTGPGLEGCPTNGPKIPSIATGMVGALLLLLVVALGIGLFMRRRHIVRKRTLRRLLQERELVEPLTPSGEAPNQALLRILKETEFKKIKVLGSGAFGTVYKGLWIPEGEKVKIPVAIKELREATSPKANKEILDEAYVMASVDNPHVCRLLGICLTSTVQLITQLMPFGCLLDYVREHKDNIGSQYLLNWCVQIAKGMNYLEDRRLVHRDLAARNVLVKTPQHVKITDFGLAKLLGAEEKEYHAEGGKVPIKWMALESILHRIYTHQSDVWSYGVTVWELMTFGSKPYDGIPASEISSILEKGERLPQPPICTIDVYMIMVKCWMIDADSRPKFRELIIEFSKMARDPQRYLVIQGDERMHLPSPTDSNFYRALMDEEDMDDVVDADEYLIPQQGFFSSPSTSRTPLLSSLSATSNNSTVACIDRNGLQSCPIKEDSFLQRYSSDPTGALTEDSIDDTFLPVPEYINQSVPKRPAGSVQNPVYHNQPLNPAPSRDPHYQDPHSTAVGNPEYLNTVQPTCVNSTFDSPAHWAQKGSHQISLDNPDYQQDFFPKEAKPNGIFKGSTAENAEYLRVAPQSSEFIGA
Summary of the method: as §2

Kdr = target: T5, Kdr (Homo sapiens, UniProt P35968); assay: Kinase inhibition assay (33P transfer), Kdr
T5 construct: Kinases are expressed as either kinase domains or full length constructs; made in house
Summary of the method: as §1

Tek = target: T6, Tek (Homo sapiens, UniProt Q02763); assay: Kinase inhibition assay (33P transfer), Tek; conditions: read-out: Tek-1
T6 construct: Kinases are expressed as either kinase domains or full length constructs; made in house
Summary of the method: as §2

c-Met = target: T7, c-Met (Homo sapiens, UniProt P08581); assay: Kinase inhibition assay (33P transfer), c-Met; conditions: Table 2, kinase inhibition class; read-out: Met-1
T7 construct: Kinases are expressed as either kinase domains or full length constructs; made in house
T7 sequence (P08581 25-1390): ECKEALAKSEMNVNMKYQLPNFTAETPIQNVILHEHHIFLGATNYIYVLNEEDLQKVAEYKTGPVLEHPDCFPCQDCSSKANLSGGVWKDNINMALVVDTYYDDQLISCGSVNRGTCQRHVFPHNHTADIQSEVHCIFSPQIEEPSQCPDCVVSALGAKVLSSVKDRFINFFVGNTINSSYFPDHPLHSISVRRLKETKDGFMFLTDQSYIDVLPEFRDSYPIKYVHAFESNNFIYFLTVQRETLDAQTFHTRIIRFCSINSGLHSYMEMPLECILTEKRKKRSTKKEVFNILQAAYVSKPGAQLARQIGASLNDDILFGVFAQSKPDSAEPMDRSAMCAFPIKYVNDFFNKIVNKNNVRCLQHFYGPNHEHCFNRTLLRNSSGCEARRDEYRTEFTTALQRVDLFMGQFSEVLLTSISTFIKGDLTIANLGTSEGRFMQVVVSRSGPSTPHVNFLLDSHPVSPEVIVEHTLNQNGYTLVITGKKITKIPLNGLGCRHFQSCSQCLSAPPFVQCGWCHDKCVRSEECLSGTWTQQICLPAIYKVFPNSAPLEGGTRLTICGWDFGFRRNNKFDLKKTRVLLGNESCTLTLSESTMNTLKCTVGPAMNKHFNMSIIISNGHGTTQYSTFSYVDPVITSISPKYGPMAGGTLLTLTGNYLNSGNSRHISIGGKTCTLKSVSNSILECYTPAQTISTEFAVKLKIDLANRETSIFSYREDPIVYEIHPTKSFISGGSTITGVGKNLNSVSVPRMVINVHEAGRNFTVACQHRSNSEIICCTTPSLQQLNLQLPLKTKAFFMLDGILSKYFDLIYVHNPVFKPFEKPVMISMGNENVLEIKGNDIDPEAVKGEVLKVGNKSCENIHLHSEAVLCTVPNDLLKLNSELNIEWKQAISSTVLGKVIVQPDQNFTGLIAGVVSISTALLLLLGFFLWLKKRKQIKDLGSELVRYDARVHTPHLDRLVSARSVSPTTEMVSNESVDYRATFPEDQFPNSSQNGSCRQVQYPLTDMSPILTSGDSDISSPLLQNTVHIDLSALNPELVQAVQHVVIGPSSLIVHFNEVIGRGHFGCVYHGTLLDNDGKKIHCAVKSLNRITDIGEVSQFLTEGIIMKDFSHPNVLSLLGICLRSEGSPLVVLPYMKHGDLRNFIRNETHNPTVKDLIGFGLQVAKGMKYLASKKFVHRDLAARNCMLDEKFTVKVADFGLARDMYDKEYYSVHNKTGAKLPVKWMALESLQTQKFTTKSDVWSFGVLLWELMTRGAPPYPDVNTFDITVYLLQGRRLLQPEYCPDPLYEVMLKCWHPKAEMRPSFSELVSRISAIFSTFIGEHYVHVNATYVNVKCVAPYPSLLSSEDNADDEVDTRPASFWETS
Summary of the method: as §2

AKT = target: T8, AKT (Homo sapiens, UniProt Q9Y243); assay: Kinase inhibition assay (33P transfer), AKT; conditions: Table 2, kinase inhibition class; read-out: AKT3-1
T8 construct: Kinases are expressed as either kinase domains or full length constructs; made in house
Summary of the method: as §1

IGFR-1 [1] = target: T9, IGFR-1 (Homo sapiens, UniProt P08069); assay: Kinase inhibition assay (33P transfer), IGFR-1; conditions: Table 2, kinase inhibition class
T9 construct: Kinases are expressed as either kinase domains or full length constructs; made in house

ErbB2 = target: T10, ErbB2 (Homo sapiens, UniProt P04626); assay: Kinase inhibition assay (33P transfer), ErbB2; conditions: read-out: ErbB2-2
T10 construct: Kinases are expressed as either kinase domains or full length constructs; made in house
T10 sequence (P04626 23-1255, species assumed): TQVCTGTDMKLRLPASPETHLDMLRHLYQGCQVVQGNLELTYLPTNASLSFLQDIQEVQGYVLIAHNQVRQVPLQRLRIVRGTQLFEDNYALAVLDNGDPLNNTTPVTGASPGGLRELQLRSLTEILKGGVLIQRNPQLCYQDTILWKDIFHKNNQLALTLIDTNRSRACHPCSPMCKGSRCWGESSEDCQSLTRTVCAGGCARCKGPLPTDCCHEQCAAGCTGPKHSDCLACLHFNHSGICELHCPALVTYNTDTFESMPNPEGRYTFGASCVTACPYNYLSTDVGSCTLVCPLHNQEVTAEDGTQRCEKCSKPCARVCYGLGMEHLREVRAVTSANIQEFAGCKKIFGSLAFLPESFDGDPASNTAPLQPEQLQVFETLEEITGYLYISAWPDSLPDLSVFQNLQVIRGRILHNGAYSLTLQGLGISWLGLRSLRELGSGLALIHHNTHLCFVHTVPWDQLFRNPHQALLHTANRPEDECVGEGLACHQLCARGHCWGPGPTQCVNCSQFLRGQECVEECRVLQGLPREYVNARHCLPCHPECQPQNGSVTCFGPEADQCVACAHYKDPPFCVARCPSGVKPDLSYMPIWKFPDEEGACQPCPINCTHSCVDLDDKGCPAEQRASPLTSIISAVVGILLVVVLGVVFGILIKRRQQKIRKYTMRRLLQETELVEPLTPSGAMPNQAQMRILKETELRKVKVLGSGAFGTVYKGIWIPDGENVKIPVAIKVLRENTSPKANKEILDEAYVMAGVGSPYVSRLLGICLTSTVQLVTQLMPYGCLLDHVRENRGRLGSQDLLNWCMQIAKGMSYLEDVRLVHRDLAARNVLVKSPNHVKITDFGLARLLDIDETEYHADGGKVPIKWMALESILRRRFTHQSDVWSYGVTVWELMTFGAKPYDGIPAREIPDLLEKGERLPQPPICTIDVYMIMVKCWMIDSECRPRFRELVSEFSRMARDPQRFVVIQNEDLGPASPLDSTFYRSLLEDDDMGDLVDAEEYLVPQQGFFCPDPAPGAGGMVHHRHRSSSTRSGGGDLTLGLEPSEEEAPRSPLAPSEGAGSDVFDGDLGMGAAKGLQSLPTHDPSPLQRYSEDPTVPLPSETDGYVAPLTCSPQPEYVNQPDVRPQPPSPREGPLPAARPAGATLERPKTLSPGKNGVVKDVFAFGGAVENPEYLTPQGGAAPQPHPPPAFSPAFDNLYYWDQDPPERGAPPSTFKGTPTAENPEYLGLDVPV
Summary of the method: as §2

IGFR-1 [2] = target: T9, IGFR-1; assay: Kinase inhibition assay, IGFR-1 (Table 2); conditions: Table 2, kinase inhibition class
PDGFRB = target: T11, PDGFRB (Homo sapiens, UniProt P09619); assay: Kinase inhibition assay (33P transfer), PDGFRB; conditions: read-out: PDGFRB-1
T11 construct: Kinases are expressed as either kinase domains or full length constructs; made in house
T11 sequence (P09619 33-1106, species assumed): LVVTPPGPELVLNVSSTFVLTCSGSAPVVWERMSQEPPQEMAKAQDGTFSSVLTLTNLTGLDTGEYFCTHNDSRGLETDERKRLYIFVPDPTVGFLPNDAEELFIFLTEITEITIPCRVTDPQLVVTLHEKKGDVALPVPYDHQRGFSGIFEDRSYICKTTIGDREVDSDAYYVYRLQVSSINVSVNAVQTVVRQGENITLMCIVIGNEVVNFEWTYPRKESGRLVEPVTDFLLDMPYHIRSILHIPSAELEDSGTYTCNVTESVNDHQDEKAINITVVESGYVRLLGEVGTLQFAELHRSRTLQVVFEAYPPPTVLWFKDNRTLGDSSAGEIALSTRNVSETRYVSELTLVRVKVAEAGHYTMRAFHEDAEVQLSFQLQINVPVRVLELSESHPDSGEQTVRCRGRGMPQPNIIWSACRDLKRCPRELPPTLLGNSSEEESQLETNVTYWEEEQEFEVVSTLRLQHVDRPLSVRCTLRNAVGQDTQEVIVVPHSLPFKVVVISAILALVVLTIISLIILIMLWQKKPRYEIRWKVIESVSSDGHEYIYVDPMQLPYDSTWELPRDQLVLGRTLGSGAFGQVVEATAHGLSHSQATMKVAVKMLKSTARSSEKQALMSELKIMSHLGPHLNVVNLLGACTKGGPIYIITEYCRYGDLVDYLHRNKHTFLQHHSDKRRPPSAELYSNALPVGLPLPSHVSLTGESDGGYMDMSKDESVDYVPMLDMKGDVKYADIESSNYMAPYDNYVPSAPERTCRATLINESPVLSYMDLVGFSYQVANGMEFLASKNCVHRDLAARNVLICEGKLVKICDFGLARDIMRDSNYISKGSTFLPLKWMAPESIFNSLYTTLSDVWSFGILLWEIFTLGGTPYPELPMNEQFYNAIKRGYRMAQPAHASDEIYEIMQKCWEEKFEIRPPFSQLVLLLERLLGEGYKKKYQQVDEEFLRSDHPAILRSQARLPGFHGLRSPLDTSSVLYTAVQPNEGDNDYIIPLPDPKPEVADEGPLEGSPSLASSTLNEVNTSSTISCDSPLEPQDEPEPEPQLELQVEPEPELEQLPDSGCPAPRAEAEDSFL

## COc1ccc(Nc2ncnc(Nc3ccc(OCc4ccccc4)cc3)n2)cc1 [Compound 161]
Lck; Table 3
  IC50: > 11.3 µM
Zap-70; Table 3
  IC50: > 11.3 µM
Itk; Table 3
  IC50: > 11.3 µM
EGFR
  IC50: > 11.3 µM
Kdr; Table 3, read-out: KDR-1
  IC50: 1 to 6.01 µM
Tek
  IC50: 6.01 to 8.76 µM
c-Met
  IC50: > 11.3 µM
AKT
  IC50: 6.01 to 8.76 µM
IGFR-1 [1]
  IC50: > 11.3 µM

## COc1cc(Nc2ncnc(Nc3cc(OC)c(OC)c(OC)c3)n2)ccc1OCCN1CCOCC1 [Compound 601]
Lck
  IC50: 0.78 to 4.68 µM
Zap-70
  IC50: > 8.78 µM
Itk
  IC50: > 8.78 µM
EGFR
  IC50: 0.78 to 4.68 µM
ErbB2
  IC50: 0.78 to 4.68 µM
Kdr; read-out: KDR-1
  IC50: 4.68 to 6.83 µM
c-Met
  IC50: > 8.78 µM
AKT
  IC50: > 8.78 µM
IGFR-1 [2]
  IC50: > 8.78 µM
PDGFRB
  IC50: 0.78 to 4.68 µM

## COc1cc(Nc2ncnc(-n3c(NCc4ccc(C(F)(F)F)cc4)nc4ccccc43)n2)cc(OC)c1OC [Compound 598]
Lck
  IC50: > 8.16 µM
Zap-70
  IC50: > 8.16 µM
Itk
  IC50: > 8.16 µM
EGFR
  IC50: > 8.16 µM
ErbB2
  IC50: 6.35 to 8.16 µM
Kdr; read-out: KDR-1
  IC50: 0.725 to 4.35 µM
c-Met
  IC50: > 8.16 µM
AKT
  IC50: > 8.16 µM
IGFR-1 [2]
  IC50: > 8.16 µM
PDGFRB
  IC50: > 8.16 µM

## COc1ccc(Nc2ncnc(Nc3cc(OC)c(OC)c(OC)c3)n2)cc1OCCN1CCOCC1 [Compound 599]
Lck
  IC50: 0.78 to 4.68 µM
Zap-70
  IC50: > 8.78 µM
Itk
  IC50: > 8.78 µM
EGFR
  IC50: 6.83 to 8.78 µM
ErbB2
  IC50: 4.68 to 6.83 µM
Kdr; read-out: KDR-1
  IC50: 4.68 to 6.83 µM
c-Met
  IC50: > 8.78 µM
AKT
  IC50: > 8.78 µM
IGFR-1 [2]
  IC50: > 8.78 µM
PDGFRB
  IC50: 0.78 to 4.68 µM

## COC(=O)c1ccc(-c2cc(Nc3ncnc(Nc4cccc(CC(=O)O)c4)n3)[nH]n2)cc1 [Compound 604]
Lck
  IC50: 0.898 to 5.39 µM
Zap-70
  IC50: 5.39 to 7.86 µM
Itk
  IC50: 0.898 to 5.39 µM
EGFR
  IC50: 0.898 to 5.39 µM
ErbB2
  IC50: 0.898 to 5.39 µM
Kdr; read-out: KDR-1
  IC50: 0.898 to 5.39 µM
c-Met
  IC50: < 0.898 µM
AKT
  IC50: 5.39 to 7.86 µM
IGFR-1 [2]
  IC50: 0.898 to 5.39 µM
PDGFRB
  IC50: 0.898 to 5.39 µM

## COc1cc(Nc2ncnc(NC(=O)NCc3ccccc3)n2)cc(OC)c1OC [Compound 660]
Lck
  IC50: 0.975 to 5.85 µM
Zap-70
  IC50: > 11 µM
Itk
  IC50: > 11 µM
EGFR
  IC50: 0.975 to 5.85 µM
ErbB2
  IC50: 5.85 to 8.53 µM
Kdr; read-out: KDR-1
  IC50: > 11 µM
c-Met
  IC50: > 11 µM
AKT
  IC50: > 11 µM
IGFR-1 [2]
  IC50: > 11 µM
PDGFRB
  IC50: > 11 µM

## COc1ccc(CNc2nc3ccccc3n2-c2ncnc(Nc3cc(OC)c(OC)c(OC)c3)n2)cc1OC [Compound 596]
Lck
  IC50: > 8.28 µM
Zap-70
  IC50: > 8.28 µM
Itk
  IC50: > 8.28 µM
EGFR
  IC50: 4.42 to 6.44 µM
ErbB2
  IC50: 0.736 to 4.42 µM
Kdr; read-out: KDR-1
  IC50: 6.44 to 8.28 µM
c-Met
  IC50: > 8.28 µM
AKT
  IC50: > 8.28 µM
IGFR-1 [2]
  IC50: > 8.28 µM
PDGFRB
  IC50: 4.42 to 6.44 µM

## Nc1nc2ccccc2n1-c1ncnc(Nc2ccccn2)n1 [Compound 659]
Lck
  IC50: 7.89 to 11.5 µM
Zap-70
  IC50: > 14.8 µM
Itk
  IC50: 1.31 to 7.89 µM
EGFR
  IC50: > 14.8 µM
ErbB2
  IC50: > 14.8 µM
Kdr; KDR-1
  IC50: 7.89 to 11.5 µM
c-Met
  IC50: > 14.8 µM
AKT
  IC50: > 14.8 µM
IGFR-1 [2]
  IC50: 1.31 to 7.89 µM
PDGFRB
  IC50: > 14.8 µM

## COc1cc(Nc2ncnc(NC(=O)NCCc3ccccc3)n2)cc(OC)c1OC [Compound 661]
Lck
  IC50: > 10.6 µM
Zap-70
  IC50: > 10.6 µM
Itk
  IC50: > 10.6 µM
EGFR
  IC50: > 10.6 µM
ErbB2
  IC50: > 10.6 µM
Kdr; read-out: KDR-1
  IC50: 0.942 to 5.65 µM
c-Met
  IC50: > 10.6 µM
AKT
  IC50: > 10.6 µM
IGFR-1 [2]
  IC50: > 10.6 µM
PDGFRB
  IC50: > 10.6 µM

## COc1cc(Nc2ncnc(-n3c(NCC(N)=O)nc4ccccc43)n2)cc(OC)c1OC [Compound 389]
Lck; Table 3
  IC50: > 9.99 µM
Zap-70; Table 3
  IC50: > 9.99 µM
Itk; Table 3
  IC50: > 9.99 µM
EGFR
  IC50: > 9.99 µM
Kdr; Table 3, read-out: KDR-1
  IC50: > 9.99 µM
Tek
  IC50: > 9.99 µM
c-Met
  IC50: > 9.99 µM
AKT
  IC50: > 9.99 µM
IGFR-1 [1]
  IC50: < 0.888 µM
